For this assay, the target named is T1, Bovine lysyl oxidase (LOX) (Bos taurus, UniProt P33072).
T1 construct: from tissue; host or cells: adult bovine tendon
T1 sequence (P33072 170-418): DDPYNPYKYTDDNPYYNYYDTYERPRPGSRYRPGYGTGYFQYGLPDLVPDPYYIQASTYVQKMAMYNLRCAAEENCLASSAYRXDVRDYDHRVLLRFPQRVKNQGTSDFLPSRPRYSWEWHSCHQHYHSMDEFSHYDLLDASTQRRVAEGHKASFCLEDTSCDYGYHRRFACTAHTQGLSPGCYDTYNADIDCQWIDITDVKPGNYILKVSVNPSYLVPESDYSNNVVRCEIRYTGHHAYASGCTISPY
Description: LOX inhibition assay (fluorometric, cadaverine/Amplex Red/HRP). The format is biochemical. The note with it: IC50 class; bovine tendon LOX, cadaverine substrate; read-out: Activity Range LOX. The method, boiled down: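 Bovine tendon-extracted LOX was preincubated 30 min at 37 °C with compound. Cadaverine/Amplex Red/HRP was then added and fluorescence (ex530/em600) monitored for 120 min at 37 °C. Progress-curve slopes, background-subtracted against no-protein wells, were normalised to DMSO controls and fitted with a four-parameter variable-slope dose-response model.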
Regarding `NCc1ccc(S(=O)(=O)N2C[C@H](C(=O)N3CCS(=O)(=O)CC3)C[C@@H](c3ccccc3)C2)s1.O=C(O)C(F)(F)F` (racemic) [Example 75B, trans-(1-((5-(Aminomethyl)thiophen-2-yl)sulfonyl)-5-phenylpiperidin-3-yl)(1,1-dioxidothiomorpholino)methanone 2,2,2-trifluoroacetate], the IC50 was not above 0.5 µM.
Under `NCc1ccnc(S(=O)(=O)N2C[C@@H](C(=O)N3CCOCC3)C[C@@H](c3ccccc3)C2)c1` (relative stereo) [Example 133, cis-(1-((4-(Aminomethyl)pyridin-2-yl)sulfonyl)-5-phenylpiperidin-3-yl)(morpholino)methanone 2,2,2-trifluoroacetate] stands 1 to 30 µM; under `NCc1cccc(S(=O)(=O)N2C[C@@H](C(=O)N3CCS(=O)(=O)CC3)C[C@@H](C3CCCCC3)C2)c1` (racemic) [Example 140, cis-(1-((3-(Aminomethyl)phenyl)sulfonyl)-5-cyclohexylpiperidin-3-yl)(1,1-dioxidothiomorpholino)methanone], more than 30 µM; under `NCc1cccc(S(=O)(=O)N2C[C@@H](C(=O)N3CCOCC3)C[C@@H](C3CCCCC3)C2)c1` (racemic) [Example 139, cis-(1-((3-(Aminomethyl)phenyl)sulfonyl)-5-cyclohexylpiperidin-3-yl)(morpholino)methanone], more than 30 µM.
Under `NCc1ccc(S(=O)(=O)N2C[C@H](C(=O)N3CCOCC3)C[C@H](c3ccccc3)C2)s1` [Example 13B, ((3R,5R)-1-((5-(aminomethyl)thiophen-2-yl)sulfonyl)-5-phenylpiperidin-3-yl)(morpholino)methanone] stands not above 0.5 µM.
In the case of `CN(C)C(=O)N1C[C@@H](c2ccccc2)C[C@@H](S(=O)(=O)c2cccc(CN)c2)C1.O=C(O)C(F)(F)F` (racemic) [Example 74, cis-3-((3-(Aminomethyl)phenyl)sulfonyl)-N,N-dimethyl-5-phenylpiperidine-1-carboxamide 2,2,2-trifluoroacetate], the IC50 is more than 30 µM.
For `NCc1ccnc(S(=O)(=O)N2C[C@@H](C(=O)N3CCS(=O)(=O)CC3)C[C@@H](c3ccccc3)C2)c1` (racemic) [Example 134, cis-(1-((4-(Aminomethyl)pyridin-2-yl)sulfonyl)-5-phenylpiperidin-3-yl)(1,1-dioxidothiomorpholino)methanone 2,2,2-trifluoroacetate], the IC50 was in the range of 1 to 30 µM.
Under `NCc1ccnc(S(=O)(=O)N2C[C@H](C(=O)N3CCOCC3)C[C@H](c3ccccc3)C2)c1` [Example 133B, ((3R,5R)-1-((4-(aminomethyl)pyridin-2-yl)sulfonyl)-5-phenylpiperidin-3-yl)(morpholino)methanone 2,2,2-trifluoroacetate] stands 1 to 30 µM; under `NCc1cccc(S(=O)(=O)N2C[C@H](C(=O)N3CCS(=O)(=O)CC3)C[C@@H](c3ccccc3)C2)c1` (racemic) [Example 85, trans-(1-((3-(Aminomethyl)phenyl)sulfonyl)-5-phenylpiperidin-3-yl)(1,1-dioxidothiomorpholino)methanone 2,2,2-trifluoroacetate], more than 30 µM.
On to `NCc1ccnc(S(=O)(=O)N2C[C@@H](C(=O)N3CCS(=O)(=O)CC3)C[C@@H](C3CCCCC3)C2)c1.O=C(O)C(F)(F)F` (racemic) [Example 146, cis-(1-((4-(Aminomethyl)pyridin-2-yl)sulfonyl)-5-cyclohexylpiperidin-3-yl)(1,1-dioxidothiomorpholino)methanone 2,2,2-trifluoroacetate], for which the IC50 is 1 to 30 µM.
Under `CN(C)C(=O)[C@H]1C[C@@H](C2CCCCC2)CN(S(=O)(=O)c2cc(CN)ccn2)C1` (racemic) [Example 144, cis-1-((4-(Aminomethyl)pyridin-2-yl)sulfonyl)-5-cyclohexyl-N,N-dimethylpiperidine-3-carboxamide 2,2,2-trifluoroacetate] stands 1 to 30 µM; under `CS(=O)(=O)[C@@H]1C[C@@H](S(=O)(=O)c2cccc(CN)c2)CN(c2ccccc2)C1` (racemic) [Example 79, trans-(3-((-5-(Methylsulfonyl)-1-phenylpiperidin-3-yl)sulfonyl)phenyl)methanamine], more than 30 µM; under `CS(=O)(=O)N1C[C@H](Oc2cccc(CN)c2)C[C@H](c2ccccc2F)C1` (racemic) [Example 70, cis-(3-((5-(2-Fluorophenyl)-1-(methylsulfonyl)piperidin-3-yl)oxy)phenyl)methanamine 2,2,2-trifluoroacetate], more than 30 µM.
For `CS(=O)(=O)N1CCN(C(=O)[C@H]2C[C@@H](c3ccccc3F)CN(S(=O)(=O)c3ccc(CN)s3)C2)CC1.O=C(O)C(F)(F)F` (racemic) [Example 91, cis-(1-((5-(Aminomethyl)thiophen-2-yl)sulfonyl)-5-(2-fluorophenyl)piperidin-3-yl)(4-(methylsulfonyl)piperazin-1-yl)methanone 2,2,2-trifluoroacetate], the IC50 was not above 0.5 µM.
With `NCc1ccnc(S(=O)(=O)N2C[C@@H](C(=O)N3CCOCC3)C[C@@H](C3CCCCC3)C2)c1` (racemic) [Example 145, cis-(1-((4-(Aminomethyl)pyridin-2-yl)sulfonyl)-5-cyclohexylpiperidin-3-yl)(morpholino)methanone 2,2,2-trifluoroacetate], the IC50 lay in the range of 1 to 30 µM.
On to `NCc1ccc(S(=O)(=O)N2C[C@@H](C(=O)N3CCOCC3)C[C@@H](C3CCCCC3)C2)s1.O=C(O)C(F)(F)F` (racemic) [Example 120, cis-(1-((5-(Aminomethyl)thiophen-2-yl)sulfonyl)-5-cyclohexylpiperidin-3-yl)(morpholino)methanone 2,2,2-trifluoroacetate], for which the IC50 is not above 0.5 µM.
For `NCc1cccc(S(=O)(=O)N2C[C@H](C(=O)N3CCS(=O)(=O)CC3)C[C@@H](c3ccccc3)C2)n1` (racemic) [Example 115T, trans-(1-((6-(Aminomethyl)pyridin-2-yl)sulfonyl)-5-phenylpiperidin-3-yl)(1,1-dioxidothiomorpholino)methanone 2,2,2-trifluoroacetate] the value was more than 30 µM.
For `CS(=O)(=O)[C@H]1C[C@@H](S(=O)(=O)c2cccc(CN)c2)CN(c2ccccc2F)C1` (racemic) [Example 92, cis-(3-((-1-(2-Fluorophenyl)-5-(methylsulfonyl)piperidin-3-yl)sulfonyl)phenyl)methanamine 2,2,2-trifluoroacetate] the value was more than 30 µM; for `NCc1ccnc(S(=O)(=O)N2C[C@@H](C(=O)N3CCOCC3)C[C@@H](c3ccccc3)C2)c1` [Example 133A, ((3S,5S)-1-((4-(aminomethyl)pyridin-2-yl)sulfonyl)-5-phenylpiperidin-3-yl)(morpholino)methanone 2,2,2-trifluoroacetate], 1 to 30 µM; for `CN(C)C(=O)[C@H]1C[C@@H](C2CCCCC2)CN(S(=O)(=O)c2cccc(CN)c2)C1` (relative stereo) [Example 138, cis-1-((3-(Aminomethyl)phenyl)sulfonyl)-5-cyclohexyl-N,N-dimethylpiperidine-3-carboxamide 2,2,2-trifluoroacetate], more than 30 µM.
For `CS(=O)(=O)[C@H]1C[C@@H](S(=O)(=O)c2cccc(CN)c2)CN(c2ccccc2)C1` (racemic) [Example 23, cis-(3-((-5-(Methylsulfonyl)-1-phenylpiperidin-3-yl)sulfonyl)phenyl)methanamine] the value was more than 30 µM.

Values taken from patent US20230310445A1, “LOX ENZYME INHIBITING METHODS AND COMPOSITIONS” (ANOVIA BIOSCIENCES, INC., priority 2020, published 2023).
